ChEMBL document CHEMBL1127819, “Classical and nonclassical furo[2,3-d]pyrimidines as novel antifolates: synthesis and biological activities” (J Med Chem, 1994)

Columns and labels:
786-0 = experiment: Growth inhibitory concentration against tumor cells in culture renal cancer […] cell line; format: functional, Homo sapiens
ACHN = experiment: Inhibitory activity against kidney A-CHN tumor cell growth in culture; format: functional, cell-based; conditions: Homo sapiens
Homo sapiens = species: Homo sapiens; experiment: (§1) Activity is determined as substrate for CCRF-CEM human leukemia cell folyl-poly-glutamate synthetase; format: ADME
[1] = tested on: folylpolyglutamate synthetase (FPGS); experiment: as §1; format: ADME; conditions: folylpolyglutamate synthetase from CCRF-CEM leukemia cells
CCRF-CEM [2] = experiment: Growth inhibition of methotrexate resistant human T-lymphoblastic leukemia cell subline CEM/MTX; format: functional, cell-based
CCRF-CEM [3] = experiment: Growth inhibition of human T-lymphoblastic leukemia cell line CCRF-CEM; format: functional, cell-based
CCRF-CEM [4] = experiment: Inhibitory activity against CCRF-CEM tumor cell growth in culture; format: functional, cell-based; conditions: Homo sapiens
Dihydrofolate reductase [5] = target: T1, Dihydrofolate reductase (Pneumocystis carinii, UniProt P16184); experiment: Inhibitory concentration for DHFR in Pneumocystis carinii
T1 sequence (P16184 whole entry): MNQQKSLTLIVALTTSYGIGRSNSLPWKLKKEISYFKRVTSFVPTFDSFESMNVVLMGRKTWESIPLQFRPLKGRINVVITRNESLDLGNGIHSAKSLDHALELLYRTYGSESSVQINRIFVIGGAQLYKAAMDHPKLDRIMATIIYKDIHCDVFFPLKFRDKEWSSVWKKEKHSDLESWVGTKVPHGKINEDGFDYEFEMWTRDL

FaDu [6] = experiment: Protection of FaDu cells from growth inhibitory effects of compound by combination of 50 uM hypoxanthine (Hx) and 40 uM thymidine (TdR); format: functional, Homo sapiens; set-up: scale not given: the % may be the effect or the level left
FaDu [7] = experiment: Protection of FaDu cells from growth inhibitory effects of compound with no addition; format: functional, Homo sapiens; set-up: scale not given: the % may be the effect or the level left
FaDu [8] = experiment: Growth inhibition of human squamous cell carcinoma FaDu; format: functional, cell-based
FaDu [9] = experiment: Protection of FaDu cells from growth inhibitory effects of compound by 10 uM leucovorin (LV); format: functional, Homo sapiens; set-up: scale not given: the % may be the effect or the level left
FaDu [10] = experiment: Protection of FaDu cells from growth inhibitory effects of compound by 40 uM thymidine (TdR); format: functional, Homo sapiens; set-up: scale not given: the % may be the effect or the level left
FaDu [11] = experiment: Protection of FaDu cells from growth inhibitory effects of compound by 50 uM hypoxanthine (Hx); format: functional, Homo sapiens; set-up: scale not given: the % may be the effect or the level left
HL-60 = experiment: Growth inhibitory concentration against tumor cells in culture leukemia cell line, HL-60(TB); format: functional, Homo sapiens
HCT-116 = experiment: Growth inhibitory concentration against tumor cells in culture colon cancer HCT116; format: functional, Homo sapiens
IGROV-1 = experiment: Growth inhibitory concentration against tumor cells in culture ovarian cancer IGROV-1; format: functional, Homo sapiens
K562 = experiment: Growth inhibitory concentration against tumor cells in culture leukemia cell line, K-562; format: functional, Homo sapiens
MCF7 = experiment: Growth inhibitory concentration against tumor cells in culture breast cancer cell line, MCF-7; format: functional, Homo sapiens
LOX IMVI = experiment: Growth inhibitory concentration against tumor cells in culture melanoma LOX-IMVI; format: functional, Homo sapiens
MDA-N = experiment: Growth inhibitory concentration against tumor cells in culture breast cancer cell line, MDA-N; format: functional, Homo sapiens
MDA-MB-435 = experiment: Growth inhibitory concentration against tumor cells in culture breast cancer cell line, MDA-MB-435; format: functional, Homo sapiens
NCI-H460 = experiment: Growth inhibitory concentration against tumor cells in culture non-small-cell-lung NCI-H460; format: functional, Homo sapiens
PC-3 = experiment: Growth inhibitory concentration against tumor cells in culture prostate cancer PC-3; format: functional, Homo sapiens
R30dm-CCRF-CEM [12] = experiment: Growth inhibition of methotrexate resistant human T-lymphoblastic leukemia cell subline R30dm; format: functional, cell-based
SF-268 = experiment: Growth inhibitory concentration against tumor cells in culture CNS cancer cell line, SF-268; format: functional, Homo sapiens
SK-5 = experiment: Inhibitory activity against melanoma SK-5 tumor cell growth in culture; format: functional, cell-based; conditions: Homo sapiens
Thymidylate synthase [13] = target: Thymidylate synthase (Lactobacillus casei, UniProt P00469); experiment: Inhibitory concentration for TS in Lactobacillus casei; set-up: species or system Lacticaseibacillus casei
U-251 = experiment: Growth inhibitory concentration against tumor cells in cultureCNS cancer cell line, U-251; format: functional, Homo sapiens
Thymidylate synthase [14] = target: Thymidylate synthase (Homo sapiens, UniProt P04818); experiment: Inhibitory concentration for TS in human
Dihydrofolate reductase [15] = target: Dihydrofolate reductase (Lactobacillus casei, UniProt P00381)
Description: Inhibitory concentration for DHFR in Lactobacillus casei

Dihydrofolate reductase [16] = target: T2, Dihydrofolate reductase (Rattus norvegicus, UniProt Q920D2)
T2 sequence (Q920D2 whole entry): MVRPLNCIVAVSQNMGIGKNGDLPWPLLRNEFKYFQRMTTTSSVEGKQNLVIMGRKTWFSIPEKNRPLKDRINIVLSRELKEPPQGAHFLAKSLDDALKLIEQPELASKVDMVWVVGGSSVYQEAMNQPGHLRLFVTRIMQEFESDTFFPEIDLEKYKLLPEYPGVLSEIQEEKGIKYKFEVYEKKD
Description: Inhibitory concentration for DHFR in rat liver

[17] = target: T3, Bifunctional dihydrofolate reductase-thymidylate synthase (Toxoplasma gondii, UniProt Q07422)
T3 sequence (Q07422 whole entry): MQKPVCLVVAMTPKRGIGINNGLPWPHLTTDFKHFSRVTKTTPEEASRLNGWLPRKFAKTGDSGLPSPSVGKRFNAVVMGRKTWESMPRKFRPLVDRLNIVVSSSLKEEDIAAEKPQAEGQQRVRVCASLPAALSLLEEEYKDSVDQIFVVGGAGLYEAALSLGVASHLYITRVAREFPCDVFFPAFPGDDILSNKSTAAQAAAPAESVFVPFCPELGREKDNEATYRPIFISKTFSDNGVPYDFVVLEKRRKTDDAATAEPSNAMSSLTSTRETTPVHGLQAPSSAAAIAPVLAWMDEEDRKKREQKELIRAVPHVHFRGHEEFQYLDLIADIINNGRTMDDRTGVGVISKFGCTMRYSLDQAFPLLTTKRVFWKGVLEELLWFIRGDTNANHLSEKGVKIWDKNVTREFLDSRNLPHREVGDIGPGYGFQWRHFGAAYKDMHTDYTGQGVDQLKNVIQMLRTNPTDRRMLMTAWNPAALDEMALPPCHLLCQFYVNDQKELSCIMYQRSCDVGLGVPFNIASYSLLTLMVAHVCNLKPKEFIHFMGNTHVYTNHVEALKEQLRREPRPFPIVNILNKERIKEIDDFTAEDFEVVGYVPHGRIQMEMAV
Description: Inhibitory concentration for DHFR in Toxoplasma gondii

Dihydrofolate reductase [18] = target: T4, Dihydrofolate reductase (Homo sapiens, UniProt P00374); experiment: Inhibitory concentration for DHFR in recombinant human
T4 sequence (P00374 whole entry): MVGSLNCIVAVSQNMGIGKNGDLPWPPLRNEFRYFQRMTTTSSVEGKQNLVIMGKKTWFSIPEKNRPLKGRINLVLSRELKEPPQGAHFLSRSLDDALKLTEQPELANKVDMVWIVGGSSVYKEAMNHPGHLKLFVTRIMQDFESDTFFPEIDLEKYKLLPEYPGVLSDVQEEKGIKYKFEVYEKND

FaDu [19] = experiment: the growth inhibition of, (during continuous exposure) human squamous cell carcinoma FaDu at resistance mechanism - sensitive
R30dm-CCRF-CEM [20] = experiment: the growth inhibition of, (during continuous exposure) methotrexate resistant human T-lymphoblastic leukemia cell subline R30dm at resistance mechanism - decreased FPGS; format: functional, cell-based

Chain of Dihydrofolate reductase (Lactobacillus casei, UniProt P00381) (P00381 whole entry): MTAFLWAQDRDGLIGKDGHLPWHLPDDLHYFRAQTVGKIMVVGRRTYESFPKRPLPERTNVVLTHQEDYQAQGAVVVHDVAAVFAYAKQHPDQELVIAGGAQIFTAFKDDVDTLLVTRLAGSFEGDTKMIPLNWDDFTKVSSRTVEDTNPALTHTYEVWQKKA
Chain of Thymidylate synthase (Lactobacillus casei, UniProt P00469) (P00469 whole entry): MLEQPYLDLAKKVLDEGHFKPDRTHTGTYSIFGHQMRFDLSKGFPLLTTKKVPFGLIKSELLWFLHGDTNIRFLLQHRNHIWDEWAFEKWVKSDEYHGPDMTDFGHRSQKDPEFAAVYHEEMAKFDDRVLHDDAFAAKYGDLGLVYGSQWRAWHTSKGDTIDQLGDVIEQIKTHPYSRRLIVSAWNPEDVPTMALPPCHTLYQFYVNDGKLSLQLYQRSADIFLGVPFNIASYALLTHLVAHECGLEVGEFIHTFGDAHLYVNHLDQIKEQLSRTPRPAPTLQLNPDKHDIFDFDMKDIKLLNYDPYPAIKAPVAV
Chain of Thymidylate synthase (Homo sapiens, UniProt P04818) (P04818 whole entry): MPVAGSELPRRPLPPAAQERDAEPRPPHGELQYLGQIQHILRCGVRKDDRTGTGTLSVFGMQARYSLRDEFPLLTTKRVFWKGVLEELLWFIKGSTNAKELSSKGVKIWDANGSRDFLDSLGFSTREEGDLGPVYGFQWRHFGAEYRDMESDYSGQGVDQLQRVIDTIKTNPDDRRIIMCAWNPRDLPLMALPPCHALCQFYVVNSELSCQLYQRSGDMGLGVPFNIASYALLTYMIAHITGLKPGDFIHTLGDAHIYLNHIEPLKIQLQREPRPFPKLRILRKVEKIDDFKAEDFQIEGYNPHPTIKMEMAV

SMILES	IC50 (ACHN) [µM]	Vmax (Homo sapiens) [rel]	Km [1] [µM]	IC50 (CCRF-CEM [4]) [µM]	IC50 (Dihydrofolate reductase [5]) [µM]	Control (FaDu [6]) [%]	Control (FaDu [7]) [%]	Control (FaDu [9]) [%]	Control (FaDu [10]) [%]	Control (FaDu [11]) [%]	IC50 (SK-5) [µM]	IC50 (Dihydrofolate reductase [15]) [µM]	IC50 (Dihydrofolate reductase [16]) [µM]	IC50 [17] [µM]	IC50 (Dihydrofolate reductase [18]) [µM]	further results
CN(Cc1coc2nc(N)nc(N)c12)c1ccc(C(=O)NC(CCC(=O)O)C(=O)O)cc1 (configuration not stated)	0.837	0.75	4.65	0.043	0.035	80	6.6	106	17.1	1.9	14	0.22	0.43	19.8		IG50 (786-0): 0.07 µM; EC50 (CCRF-CEM [2]): 2.27 µM; EC50 (CCRF-CEM [3]): 0.047 µM; EC50 (FaDu [8]): 0.055 µM; IG50 (HL-60): <0.01 µM; IG50 (HCT-116): 0.02 µM; IG50 (IGROV-1): 0.73 µM; IG50 (K562): 0.024 µM; IG50 (MCF7): 0.08 µM; IG50 (LOX IMVI): 0.04 µM; IG50 (MDA-N): 0.065 µM; IG50 (MDA-MB-435): 0.09 µM; IG50 (NCI-H460): 0.15 µM; IG50 (PC-3): <0.01 µM; EC50 (R30dm-CCRF-CEM [12]): 1.03 µM; IG50 (SF-268): 0.59 µM; IC50 (Thymidylate synthase [13]): > 200 µM; IG50 (U-251): 0.75 µM; IC50 (Thymidylate synthase [14]): > 200 µM
COc1cc(NCc2coc3nc(N)nc(N)c23)cc(OC)c1OC	> 130			111	> 4						> 130	> 26	> 37	4	> 26	
COc1ccc(OC)c(NCc2coc3nc(N)nc(N)c23)c1	> 160			132	> 21						> 160	> 31	> 21	> 21	> 15	
Nc1nc(N)c2c(CNc3ccc(Cl)c(Cl)c3)coc2n1	> 150			40.9	> 35						> 150	> 3	35.2		> 15	
Nc1nc(N)c2c(CNc3cc(Cl)c(Cl)c(Cl)c3)coc2n1	40.9			10.6	8.3						47.6	> 25	25.6	> 3.9	> 25	
Nc1nc(N)c2nc(CNc3ccc(C(=O)N[C@@H](CCC(=O)O)C(=O)O)cc3)cnc2n1 [AMINOPTERIN]		1	6.8													
Nc1nc(N)c2c(CNc3ccc(C(=O)NC(CCC(=O)O)C(=O)O)cc3)coc2n1 (configuration not stated)	> 100	0.45	1.9	0.59	0.9	82	4.9	110	18.4	4.5	> 100	0.56	1.3	0.7	0.45	IG50 (786-0): 0.91 µM; EC50 (CCRF-CEM [2]): 3.17 µM; EC50 (CCRF-CEM [3]): 0.142 µM; EC50 (FaDu [8]): 0.126 µM; IG50 (HL-60): 0.02 µM; IG50 (HCT-116): 0.09 µM; IG50 (IGROV-1): >100 µM; IG50 (K562): 0.06 µM; IG50 (MCF7): 6.31 µM; IG50 (LOX IMVI): 1.23 µM; IG50 (MDA-N): 1.73 µM; IG50 (MDA-MB-435): 45.8 µM; IG50 (NCI-H460): 3.75 µM; IG50 (PC-3): 0.7 µM; EC50 (R30dm-CCRF-CEM [12]): 0.663 µM; IG50 (SF-268): 1.77 µM; IC50 (Thymidylate synthase [13]): > 200 µM; IG50 (U-251): 1.97 µM; IC50 (Thymidylate synthase [14]): > 200 µM
CN(Cc1cnc2nc(N)nc(N)c2n1)c1ccc(C(=O)N[C@@H](CCC(=O)O)C(=O)O)cc1 [METHOTREXATE]						98	2.5	114	7.3	11						EC50 (FaDu [19]): 0.019 µM; EC50 (R30dm-CCRF-CEM [20]): 0.018 µM
